Molecules are shown by their SMILES.

For orientation: melting point means the temperature, or range, at which the solid turns liquid. For `CCc1nc2c(NC(C)=O)nc3ccccc3c2n1CCCCNS(C)(=O)=O` [Example 1, N-(2-Ethyl-1-{4-[(methylsulfonyl)amino]butyl}-1H-imidazo[4,5-c]quinolin-4-yl)acetamide], the melting point fell in the range of 90 to 91 °C. For `CCc1nc2c(NC(=O)c3ccccc3)nc3ccccc3c2n1CCCCNS(C)(=O)=O` [Example 2, N-(2-Ethyl-1-{4-[(methylsulfonyl)amino]butyl}-1H-imidazo[4,5-c]quinolin-4-yl)benzamide], the melting point fell in the range of 249 to 250 °C. For `CCOC(=O)Nc1nc2ccccc2c2c1nc(CC)n2CCCCNS(C)(=O)=O` [Example 3, Ethyl 2-Ethyl-1-{4-[(methylsulfonyl)amino]butyl}-1H-imidazo[4,5-c]quinolin-4-ylcarbamate] the value was 185 to 187 °C; for `CCc1nc2c(NC(=O)C(C)C)nc3ccccc3c2n1CCCCNS(C)(=O)=O` [Example 4, N-(2-Ethyl-1-{4-[(methylsulfonyl)amino]butyl}-1H-imidazo[4,5-c]quinolin-4-yl)-2-methylpropanamide], 122 to 124 °C; for `CCc1nc2c(NC(=O)C(C)(C)C)nc3ccccc3c2n1CCCCNS(C)(=O)=O` [Example 5, N-(2-Ethyl-1-{4-[(methylsulfonyl)amino]butyl}-1H-imidazo[4,5-c]quinolin-4-yl)-2,2-dimethylpropanamide], 220 to 221 °C. `CCCOC(=O)Nc1nc2ccccc2c2c1nc(CC)n2CCCCNS(C)(=O)=O` [Example 6, Propyl 2-Ethyl-1-{4-[(methylsulfonyl)amino]butyl}-1H-imidazo[4,5-c]quinolin-4-ylcarbamate]: the melting point was 155 to 157 °C. `CCCCOC(=O)Nc1nc2ccccc2c2c1nc(CC)n2CCCCNS(C)(=O)=O` [Example 7, Butyl 2-Ethyl-1-{4-[(methylsulfonyl)amino]butyl}-1H-imidazo[4,5-c]quinolin-4-ylcarbamate] showed a melting point of 164 to 166 °C.

(Values after patent publication US8188111B2, “Amide and carbamate derivatives of alkyl substituted N-[4-(4-amino-1H-imidazo[4,5-c]quinolin-1-yl)butyI]methanesulfonamides and methods” (3M Innovative Properties Company, priority 2005, dated 2012).)
